Data reported in patent publication US8722014B2, “1 H-[1, 2, 3] triazole substituted amino acids and uses thereof” (Washington University, priority 2009, dated 2014).

Assays:
[1] = test system: 9L gliosarcoma cells; assay: Cell uptake assay in 9L gliosarcoma cells with amino acid transport inhibitors (cluster tray method); type: cell-based; conditions: for percent uptake relative to control, Na ASC: L-Ala/L-Ser/L-Cys 3.3 mM each
Protocol: The 9L gliosarcoma tumor is an established model for human glioblastoma (brain tumor). Cell uptake assays were performed with 9L gliosarcoma cells using both (R)-[^18F]4 and (S)-[^18F]4. 9L gliosarcoma cells were cultured with Earle's minimal essential medium (MEM) augmented with 10% newborn calf serum, 1% 200 mM L-glutamine, 1% MEM vitamin solution and 1% 10 mM non-essential amino acids (NEAA). The cells were passaged every two to three days prior to use with no more than a total of 20 passages. Two to three days before the uptake assays, suspension of 2.5 or 5.0×10^4 cells in culture media were aliquoted into Costar 24 well plates to achieve log growth phase with approximately 70% confluency at the time of the uptake assay (approximately 10^5 cells per well).
Cell uptake assays were performed using the cluster tray method reported in Gazzola et al., Anal. Biochem. 115: 368-374, 1981. Two buffers were used for the assays, a phosphate buffered saline solution and a sodium-free phosphate buffered choline chloride solution. […] The choline buffer was the same as the sodium buffer except choline chloride was substituted for sodium chloride and choline phosphate dibasic was substituted for sodium phosphate dibasic. A 250 mM solution of choline phosphate dibasic was prepared by boiling 95.6 mL of 75% of choline bicarbonate (0.500 mol) and 16.9 mL of 85% aqueous phosphoric acid (0.247 mol) in 750 mL of water for 60 min. The solution was brought to a total volume of 1 liter with water and brought to pH 7.4 with concentrated aqueous hydrochloric acid. The pH of the sodium and choline buffer solutions was adjusted to 7.4 with concentrated aqueous hydrochloric acid prior to use.
A variety of inhibitor conditions were used to determine which amino acid transport system or systems were responsible for cellular uptake of (R)- and (S)-[^18F]-4. The N-methylated amino acid, methylaminoisobutyric acid (MeAIB), is a selective system A substrate and has been used extensively as a competitive inhibitor of system A transport (Shotwell, M. A., et al. Biochem. Biophys. Acta. 737: 267-284, 1983; Christensen, H. N., et al., J. Biol. Chem. 240: 3609-3616, 1965) The bulky neutral amino acid, 2-aminobicyclo-(2,2,1)-heptane-2-carboxylic acid (BCH), has been extensively used as a competitive inhibitor of system L transport, and under sodium-free conditions BCH is a selective system L inhibitor (Palacin, M., et al., Physiol. Rev. 78: 969-1054, 1998. In the presence of sodium, BCH is also an inhibitor of system B^0,+ which is a sodium-dependent amino acid transporter that typically is a minor transport systems in most tissues. A mixture of L-alanine (L-Ala), L-serine (L-Ser) and L-cysteine (L-Cys), (ASC), was used as a non-specific inhibitor condition, and this combination of amino acids is expected to inhibit a broad range of amino acid transport systems including system ASC. Because of the results of initial cell uptake assays described below and the structural relationship of the 1H-1,2,3-triazole group to the imidazole side chain of L-histidine (L-His), additional uptake assays using L-His as well as the basic side chain amino acids L-arginine (L-Arg) and L-lysine (L-Lys) individually and together (RKH) as competitive inhibitors were performed.
The following inhibitors were added to the appropriate sodium or choline buffer: N-methyl aminoisobutyric acid (MeAIB, 10 mM), a mixture of L-alanine/L-serine/L-cysteine (ASC, 3.3 mM of each amino acid), (R,S)-(endo,exo)-2-aminobicyclo(2,2,1)-heptane-2-carboxylic acid (BCH, 10 mM), L-arginine (Arg, 10 mM), L-lysine (Lys, 10 mM), L-histidine (His, 10 mM) and a mixture of Arg/Lys/H is (RKH, 3.3 mM of each amino acid). For control conditions, 10 mM of sucrose was added to maintain consistent osmolality relative to the inhibitor conditions. The pH of each solution of inhibitor in buffer was adjusted as necessary to 7.40 with 3 M aqueous hydrochloric acid prior to use in cell uptake assays. […]

[2] = test system: intracranial 9L gliosarcoma tumor
Protocol: (§1) MicroPET imaging studies were performed in 2 rats implanted with subcutaneous 9L tumors and 1 rat implanted with an intracranial tumor. The subcutaneous implantations were performed as in the biodistribution studies except that the tumors were allowed to grow for 11 days prior to imaging. The intracranial tumor was implanted in the left midcerebrum using a template method as described previously in La Regina, M. C., et al., Lab. Anim. 34: 265-271, 2000, using a total of 5×10^4 cells suspended in 5 µL total volume. […] Computed axial tomography (CT) images were acquired with a MicroCAT II System (ImTek Inc., Knoxville, Tenn.), and PET data were acquired with MicroPET-FOCUS 120 and 220 scanners (Concorde MicroSystems Knoxville Tenn., USA) for 120 minutes after the intravenous tail vein injection of 0.24 to 0.31 mCi of (S)-[^18F]4. The PET and CT images were fused and analyzed using an Amira software package (Carlsbad Calif., USA), and time-activity curves were generated using ASIPro PET data analysis software (Concorde MicroSystems, Knoxville Tenn., USA).

[3] = test system: subcutaneous 9L gliosarcoma tumor
Protocol: as §1

[4] = post injection, intracranial tumor
[5] = post injection, subcutaneous tumor

Question: With `Cl.N[C@@H](Cc1cn(CC[18F])nn1)C(=O)O` [(S)-[^18F]4, (S)-2-amino-3-[1-(2-fluoroethyl)-1H-[1,2,3]triazol-4-yl]propanoic acid hydrochloride salt-[^18F]] as the compound, how does the “inhibition of uptake by ASC condition relative to the sodium control” value ([1]; neutral amino acid inhibitor assay, p<0.001) read?
Answer: The value was 89%.

Question: And the “inhibition of uptake by L-His, L-Arg and L-Lys” value ([1]; range over the three basic amino acids)?
Answer: The value was 50-69%.

Question: What about the “inhibition of uptake by L-Arg relative to control” value ([1]; sodium buffer) of the same compound?
Answer: Its value is 50%.

Question: And the “inhibition of uptake by L-His relative to control” value ([1]; sodium buffer)?
Answer: Its value is 69%.

Question: And the “percent uptake relative to control, Na RKH” value ([1]; sodium buffer, Arg/Lys/His 3.3 mM each (FIG. 4/6))?
Answer: The value was 37±6%.

Question: What about the “percent uptake relative to control, Na BCH” value ([1]; sodium buffer, BCH 10 mM, 30 sec uptake, neutral amino acid inhibitor assay (FIG. 3/5)) of the same compound?
Answer: The value was 74±13%.

Question: What about the “percent uptake relative to control, Na ASC” value ([1]; sodium buffer, 30 sec uptake, neutral amino acid inhibitor assay (FIG. 3/5)) of the same compound?
Answer: Its value is 11±7%.

Question: What about the “percent uptake relative to control, Na ASC” value ([1]; sodium buffer, basic side chain amino acid inhibitor assay (FIG. 4/6)) of the same compound?
Answer: The value was 2.4±3.5%.

Question: And the “percent uptake relative to control, Na Arg” value ([1]; sodium buffer, L-arginine 10 mM (FIG. 4/6))?
Answer: The value was 50±9%.

Question: And the “percent uptake relative to control, Na His” value ([1]; sodium buffer, L-histidine 10 mM (FIG. 4/6))?
Answer: The value was 31±5%.

Question: What about the “percent uptake relative to control, Na Lys” value ([1]; sodium buffer, L-lysine 10 mM (FIG. 4/6)) of the same compound?
Answer: The value was 46±4%.

Question: What about the “percent uptake relative to control, Na MeAIB” value ([1]; sodium buffer, MeAIB 10 mM, 30 sec uptake, neutral amino acid inhibitor assay (FIG. 3/5)) of the same compound?
Answer: Its value is 82±7%.

Question: What about the “inhibition of uptake by BCH versus control in the presence of sodium” value ([1]; sodium control vs sodium BCH) of the same compound?
Answer: Its value is 26%.

Question: And the “inhibition of uptake by substituting choline for sodium” value ([1]; sodium control vs. choline control)?
Answer: Its value is 42%.

Question: And the “reduction of uptake by BCH relative to the choline control” value ([1]; sodium free conditions)?
Answer: Its value is “approximately 50%”.

Question: What about the “percent uptake relative to control, Cho BCH” value ([1]; sodium-free choline buffer, BCH 10 mM, relative to sodium control (FIG. 3/5)) of the same compound?
Answer: The value was 30±6%.

Question: And the “percent uptake relative to control, Cho sucrose” value ([1]; sodium-free choline buffer, sucrose 10 mM, relative to sodium control (FIG. 3/5))?
Answer: Its value is 58±7%.

Question: And the “inhibition of uptake by MeAIB” value ([1]; system A inhibitor MeAIB, sodium buffer)?
Answer: Its value is “no significant inhibition”.

Question: And the “maximal tumor to brain ratio” value ([2]; MicroPET study)?
Answer: Its value is “approximately 9”.

Question: And the “time of peak uptake in adjacent normal tissues” value ([2]; brain, post injection)?
Answer: Its value is at most 5 min.

Question: And the “maximal standard uptake value (SUV)” value ([2]; intracranial tumor)?
Answer: The value was 1.1.

Question: And the “time of maximal tumor uptake” value [2, 4]?
Answer: Its value is 27.5 min.

Question: What about the “time of near maximal tumor uptake” value [2, 4] of the same compound?
Answer: The value was “approximately 20 min”.

Question: And the “tumor to bone (spinal column) ratio” value ([3]; 30 min, MicroPET)?
Answer: Its value is 2.5.

Question: And the “tumor to paraspinal muscle uptake ratio” value ([3]; 30 min, MicroPET)?
Answer: Its value is “approximately 5.0”.

Question: And the “time of peak uptake in adjacent normal tissues” value ([3]; paraspinal muscle and spinal column, post injection)?
Answer: Its value is at most 5 min.

Question: What about the “time of maximal tumor uptake” value [3, 5] of the same compound?
Answer: The value was 32.5 min.

Question: What about the “time of near maximal tumor uptake” value [3, 5] of the same compound?
Answer: The value was “approximately 20 min”.

Question: What about the “maximal standard uptake value (SUV)” value ([3]; subcutaneous 9L tumor) of the same compound?
Answer: Its value is 1.6.
